In patent EP3628672A1 (priority 2018, dated 2020):
pKi: −log10 of the molar value.

Legend:
[1] = molecular target: T1, purified LasB protein from P. aeruginosa (Pseudomonas aeruginosa, UniProt P14756); assay: Fluorometric assay to determine Ki (Abz-Ala-Gly-Leu-Ala-p-Nitro-Benzyl-Amide substrate); assay type: biochemical
T1 construct: purchased Merck or Charles River Laboratories
Method: (§1) Experiments were therefore conducted (1) to measure the potency of inhibition of compounds of the invention against purified Pseudomonas aeruginosa LasB enzyme and also experiments were conducted (2) to measure the ability of compounds of the invention to inhibit LasB-catalysed elastin degradation. The first assay uses a commercial fluorescent synthetic peptide and purified LasB enzyme. The LasB hydrolysis kinetics are measured allowing the determination of the IC50 and Ki of the inhibitors; the second is a more physiological assay using dialysed Pseudomonas aeruginosa supernatant as source of enzyme, plus its natural substrate Elastin. It is an "end point assay" that determines the percentage of LasB inhibition by each compound for one particular time point and inhibitor concentration. Technical details are described below:
This assay uses commercially available substrate (Abz-Ala-Gly-Leu-Ala-p-Nitro-Benzyl-Amide (Ex: 340 nm, Em: 415 nm) from Peptide International) and purified LasB protein from P. aeruginosa (provided by Merck or Charles River Laboratories). It is performed to determine LasB elastase activity and assess compound inhibition in 96-well plate format. All compounds of Formula (I) were assessed using the method described below.
Method: 10 to 140 ng/ml purified LasB is incubated with 250 µM Abz-Ala-Gly-Leu-Ala-p-Nitro-Benzyl-Amide in 50 mM Tris-HCl pH 7.4, 2.5 mM CaCl2, 0.01% of Triton X100 at 37°C. LasB activity (corresponding to fluorescence emission induced by substrate hydrolysis) is measured over 30 min at 37°C with a fluorescence plate reader such as the Perkin Elmer Envision or similar. Different range of inhibitor concentrations are routinely assessed depending of inhibitor potency from 0.0016 to 200 µM (2-fold dilutions series) in order to determine IC50.
The equation used to calculate the Ki from IC50 is: Ki = IC50 / (1+([S]/Km)) where [S] = 250 µM and Km = 214 µM.

LasB = molecular target: T2, LasB (Pseudomonas aeruginosa, UniProt P14756); assay: Elastin assay to determine % inhibition (Elastin Congo-Red, dialysed culture supernatant); assay type: biochemical, P. aeruginosa PAO1; settings: read-out: Elastin hydrolysis % inhibition @ 50 / 25 µM inhibitor concentration
T2 construct: uses as source of enzyme dialysed supernatant from P. aeruginosa PAO1; endogenous in cells; host or cells: P. aeruginosa PAO1 culture supernatant, filtered and dialysed
T2 sequence (P14756 198-498): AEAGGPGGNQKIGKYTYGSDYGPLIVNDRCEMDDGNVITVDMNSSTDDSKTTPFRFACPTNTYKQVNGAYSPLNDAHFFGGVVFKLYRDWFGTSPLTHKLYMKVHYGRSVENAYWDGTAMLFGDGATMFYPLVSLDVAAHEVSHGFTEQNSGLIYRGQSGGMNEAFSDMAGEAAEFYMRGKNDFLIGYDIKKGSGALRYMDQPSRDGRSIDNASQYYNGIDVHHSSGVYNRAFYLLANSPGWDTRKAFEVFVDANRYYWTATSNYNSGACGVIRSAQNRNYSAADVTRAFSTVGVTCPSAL
Method: as §1
The Elastin assay uses as source of enzyme dialysed supernatant from P. aeruginosa PAO1 and the Elastin Congo-Red as substrate. The natural LasB substrate, elastin, is complexed with the congo-red dye (Elastin Congo-Red, ECR). The elastolysis activity from the culture supernatant will degrade elastin and release the congo-red dye into the supernatant. This red dye release can be measured with a spectrophotometer.
Method: To determine LasB elastase activity and assess compound inhibition, an overnight culture of P. aeruginosa strain PAO1 is diluted in LB medium. After reaching an OD600nm of 0.6, this culture is diluted and incubated for additional 18-24 hours in a shaking incubator. Culture supernatants are recovered by centrifugation and filtrated through a […] filter. These supernatants are dialysed (filtration molecules < 20kDa) into a 50 mM Tris-HCl pH 7.4, 2.5 mM CaCl2 solution at 4°C under agitation for 24 hours. Supernatant dialysed is then mixed volume/volume with the ECR suspension (20 mg/mL of ECR in 100 mM Tris-HCl pH 7.4 buffer supplemented with 1 mM CaCl2) supplemented with Triton X100 (final concentration of 0.01%) in presence of DMSO (positive control) and/or different concentrations of compound (routinely 50 to 1.56 µM). As a negative control, the dialysed supernatant is replaced by Tris-HCl solution (50 mM Tris-HCl pH 7.4, 2.5 mM CaCl2). The mixed reaction is then incubated overnight in a 37°C shaking incubator. The reaction supernatant is recovered by centrifugation and the release of congo-red is measured by its absorbance at 495 nm (OD495nm).
Percentage inhibition is determined using the following equation: ((OD495nmvalue of positive control−OD495nmvalue of negative control)−(OD495nmvalue of treated supernatant−OD495nmvalue of positive control))/(OD495nmvalue of positive control−OD495nmvalue of negative control) × 100. [formula]

T1 sequence (P14756 198-498): as above

**Q.** CN1CCN(C(=O)CN2CCN(c3ccc(-c4csc(CNC(=O)C5(CC(=O)O)Cc6ccccc6C5)n4)cc3)CC2)CC1 [Example 36, 2-[2-[[4-[4-[4-[2-(4-methylpiperazin-1-yl)-2-oxo-ethyl]piperazin-1-yl]phenyl]thiazol-2-yl]methylcarbamoyl]indan-2-yl]acetic acid] was tested. Which pKi [1] did it give?
**A.** Its pKi is greater than 7.30.

**Q.** And the inhibition at 25 µM (LasB)?
**A.** The inhibition at 25 µM was greater than 75%.

**Q.** Which results are given for CN(C)CC#Cc1ccc(-c2csc(CNC(=O)C3(CC(=O)O)Cc4ccccc4C3)n2)cc1 [Example 37, 2-[2-[[4-[4-[3-(dimethylamino)prop-1-ynyl]phenyl]thiazol-2-yl]methylcarbamoyl]indan-2-yl]acetic acid]?
**A.** pKi [1]: 6.70 to 7.30; inhibition at 25 µM (LasB): 60 to 75%

**Q.** How did the pKi [1] turn out when CN1CCN(C(=O)COc2ccc(-c3csc(CNC(=O)C4(CC(=O)O)Cc5ccccc5C4)n3)cn2)CC1 [Example 38, 2-[2-[[4-[6-[2-(4-methylpiperazin-1-yl)-2-oxo-ethoxy]-3-pyridyl]thiazol-2-yl]methylcarbamoyl]indan-2-yl]acetic acid] was run?
**A.** Its pKi is 6.70 to 7.30.

**Q.** And the inhibition at 25 µM (LasB)?
**A.** The inhibition at 25 µM was 60 to 75%.

**Q.** With CN(C)CC(=O)Nc1ccc(-c2csc(CNC(=O)C3(CC(=O)O)Cc4ccccc4C3)n2)cc1 [Example 39, 2-[2-[[4-[4-[[2-(dimethylamino)acetyl]amino]phenyl]thiazol-2-yl]methylcarbamoyl]indan-2-yl]acetic acid] as the molecule, how does the pKi [1] read?
**A.** The pKi was 6.70 to 7.30.

**Q.** What about the inhibition at 25 µM (LasB) of the same molecule?
**A.** Its inhibition at 25 µM is 60 to 75%.

**Q.** CN1CCC(C(=O)Nc2ccc(-c3csc(CNC(=O)C4(CC(=O)O)Cc5ccccc5C4)n3)cc2)CC1 [Example 43, 2-[2-[[4-[4-[(1-methylpiperidine-4-carbonyl)amino]phenyl]thiazol-2-yl]methylcarbamoyl]indan-2-yl]acetic acid] was tested. Which pKi [1] did it give?
**A.** The pKi was 5.00 to 6.70.

**Q.** And the inhibition at 25 µM (LasB)?
**A.** Its inhibition at 25 µM is 60 to 75%.

**Q.** Which results are given for CN1CCN(C(=O)Nc2ccc(-c3csc(CNC(=O)C4(CC(=O)O)Cc5ccccc5C4)n3)cc2)CC1 [Example 44, 2-[2-[[4-[4-[(4-methylpiperazine-1-carbonyl)amino]phenyl]thiazol-2-yl]methylcarbamoyl]indan-2-yl]acetic acid]?
**A.** pKi [1]: 6.70 to 7.30; inhibition at 25 µM (LasB): 60 to 75%

**Q.** How did the pKi [1] turn out when CN1CCN(CC(=O)Nc2ccc(-c3csc(CNC(=O)C4(CC(=O)O)Cc5ccccc5C4)n3)cc2)CC1 [Example 45, 2-[2-[[4-[4-[[2-(4-methylpiperazin-1-yl)acetyl]amino]phenyl]thiazol-2-yl]methylcarbamoyl]indan-2-yl]acetic acid] was run?
**A.** The pKi was 6.70 to 7.30.

**Q.** And the inhibition at 25 µM (LasB)?
**A.** Its inhibition at 25 µM is 60 to 75%.

**Q.** With CN1CCN(C(=O)COc2ccc(-c3csc(CNC(=O)C4(CC(=O)O)Cc5ccccc5C4)n3)cc2)CC1 [Example 46, 2-[2-[[4-[4-[2-(4-methylpiperazin-1-yl)-2-oxo-ethoxy]phenyl]thiazol-2-yl]methylcarbamoyl]indan-2-yl]acetic acid] as the molecule, how does the pKi [1] read?
**A.** The pKi was 6.70 to 7.30.

**Q.** What about the inhibition at 25 µM (LasB) of the same molecule?
**A.** Its inhibition at 25 µM is greater than 75%.

**Q.** Which results are given for C[N+]1(C)CCN(C(=O)COc2ccc(-c3csc(CNC(=O)C4(CC(=O)[O-])Cc5ccccc5C4)n3)cc2)CC1 [Example 47, 2-[2-[[4-[4-[2-(4,4-dimethylpiperazin-4-ium-1-yl)-2-oxo-ethoxy]phenyl]thiazol-2-yl]methylcarbamoyl]indan-2-yl]acetate]?
**A.** pKi [1]: 5.00 to 6.70; inhibition at 25 µM (LasB): 60 to 75%

**Q.** How did the pKi [1] turn out when O=C(O)CC1(C(=O)NCc2nc(-c3ccc(OCCN4CCOCC4)cc3)cs2)Cc2ccccc2C1 [Example 49, 2-[2-[[4-[4-(2-morpholinoethoxy)phenyl]thiazol-2-yl]methylcarbamoyl]indan-2-yl]acetic acid] was run?
**A.** Its pKi is 6.70 to 7.30.

**Q.** And the inhibition at 25 µM (LasB)?
**A.** The inhibition at 25 µM was 60 to 75%.

**Q.** With C[N+]1(CCOc2ccc(-c3csc(CNC(=O)C4(CC(=O)[O-])Cc5ccccc5C4)n3)cc2)CCOCC1 [Example 50, 2-[2-[[4-[4-[2-(4-methylmorpholin-4-ium-4-yl)ethoxy]phenyl]thiazol-2-yl]methylcarbamoyl]indan-2-yl]acetate] as the molecule, how does the pKi [1] read?
**A.** Its pKi is 5.00 to 6.70.

**Q.** And the inhibition at 25 µM (LasB)?
**A.** Its inhibition at 25 µM is 60 to 75%.

**Q.** C[n+]1ccc(COc2ccc(-c3csc(CNC(=O)C4(CC(=O)[O-])Cc5ccccc5C4)n3)cc2)cc1 [Example 51, 2-[2-[[4-[4-[(1-methylpyridin-1-ium-4-yl)methoxy]phenyl]thiazol-2-yl]methylcarbamoyl]indan-2-yl]acetate] was tested. Which pKi [1] did it give?
**A.** Its pKi is 6.70 to 7.30.

**Q.** And the inhibition at 25 µM (LasB)?
**A.** Its inhibition at 25 µM is 60 to 75%.
